# Data as given in a melting point compilation (Tetko et al.; mined from patent text by program, amines drawn as free bases though some values may be those of a salt).
row,SMILES,melting point
1,CCOc1cc2c(C)c(CCN3CCN(c4ccccc4)CC3)c(=O)oc2cc1OC,164 to 165 °C
2,CC(C)(C)C(=O)NNc1ccc([N+](=O)[O-])cc1Cl,123 °C
3,Cc1nc(-c2ccc(=O)n(C(C)C)n2)c(-c2ccccc2)nc1N,208 to 210 °C
4,CN1C(=O)CC[C@]2(C)c3ccc(C(=O)OC(c4ccccc4)c4ccccc4)cc3CC[C@@H]12,130 to 131 °C
5,Oc1ccc(O[C@@H]2CCNC[C@H]2O)cc1 (relative stereo),176 to 178 °C
6,O=C(Nc1ccc(C(F)(F)F)cc1)N[C@@H](Cc1ccccc1)C(=O)OCc1ccccc1,155 to 157 °C
7,NC(=NCCCc1ccccn1)NCCCc1c[nH]cn1,85 to 86 °C
8,CC(C)(C)c1ccc(CCCO)cc1NC(=O)CC1c2ccccc2Oc2ccccc21,185 to 186 °C
9,CNc1nc(Nc2ccc(Cl)c(Cl)c2)ncc1NC(=O)c1ccccc1,265 to 267 °C
10,CC12CCC3=C4CCC(=O)C=C4CCC3C1C=CC2=O (stereo not given),182 to 183 °C
11,COc1ccccc1-c1cccc(CC(NC(=O)c2c(Cl)cccc2Cl)C(=O)O)c1 (racemic),104 °C
12,CC(=O)N(C(C)=O)C1=C(N2CCN(Cc3cc(=O)[nH]c(=O)[nH]3)CC2)C(=O)c2ccccc2C1=O,152 to 154 °C
13,COC(=O)C=CC=CCSc1ccc(N(C)C)cc1,68 to 70 °C
14,Cc1cccc2nc(-c3ccccc3)n(C3CCC(=O)NC3=O)c(=O)c12 (stereo not given),298 to 300 °C
15,CCc1c(CC(=O)NCCCCCC(=O)NCCc2ccc(NS(C)(=O)=O)cc2)ccc(OC)c1OC,110 to 112 °C
16,CCOC(C(N)=O)N(c1ccc(Cl)cc1Cc1c(F)cccc1F)S(=O)(=O)c1ccc(OC)c(OC)c1 (stereo not given),154 °C
17,CNC(=C[N+](=O)[O-])NCc1ccc(Cl)nc1,181 to 183 °C
18,CCCn1c(=O)c(-c2ccccc2)c2n(c1=O)CCCS2(=O)=O,179 to 180 °C
19,O=C(O)[C@@H](CCN1C(=O)c2ccccc2C1=O)Oc1c(Br)cc(-c2c3ccccc3cc3sc4ccccc4c23)cc1Br,222 to 223 °C
20,CCN(C=NS(=O)(=O)NC(=O)Nc1nc(OC)cc(OC)n1)CSC,143 to 144 °C
21,CC(C)c1cccc(C(C)C)c1Oc1ccc(C#N)c(C#N)c1,114 to 116 °C
22,CCOc1ccc(-c2cc(C)cn2-c2ccc(S(N)(=O)=O)cc2)cc1,135 to 139 °C
23,C=CC[C@H]1C[C@@](OS(C)(=O)=O)(C(=O)OC)C[C@@H](OC(=O)c2ccccc2)[C@@H]1O,46 to 47 °C
24,Cc1nc[nH]c1CSCCNC(=C[N+](=O)[O-])NCCSCc1nccs1,119 to 120 °C
25,COc1ccc(CCCC2CCNCC2)cc1,65 to 70 °C

row,SMILES,melting point
1,c1cncc(-c2cccc(-n3cnc4cc(-c5ccoc5)cnc43)c2)c1,191 to 192 °C
2,COc1ccc2c(ccn2Cc2ccccc2Br)n1,86 to 87 °C
3,CCOc1ccc(S(=O)(=O)N2CCN(CC)CC2)cc1C#N,86 to 88 °C
4,O=C(O)Cc1cccc(C(=O)c2cc3cc(C(=O)O)sc3s2)c1,283 °C
5,CCOC(=O)CN1C(=O)Nc2cccc(OC)c2C1C (stereo not given),150 to 151 °C
6,Cc1ccc(N2C(=O)C(O)=C(C(=O)c3ccc(-c4ccccc4)cc3)C2c2ccc(OC(F)(F)F)cc2)nn1 (stereo not given),226 to 232 °C
7,CCCC(O)(Cn1nc[nH]c1=S)c1ccc(Cl)cc1Cl (stereo not given),148 °C
8,Cc1cccc(-c2n[nH]cc2-c2ccc(F)c(-c3c[nH]c(CC(C)(C)O)n3)c2)n1,136 to 140 °C
9,CSC1C(=O)Nc2ccc(C3=NNC(=O)SC3C)cc21 (stereo not given),159 °C
10,O=C(NCc1cccnc1)Nc1ccc([N+](=O)[O-])cc1,220 to 222 °C
11,CC(C(O)c1cc(F)c(OCc2ccccc2)c(F)c1)N1CCC(O)(c2ccc(C(F)(F)F)cc2)CC1 (stereo not given),201 to 202 °C
12,CC1=CC=C[C@@H](O)[C@H]1O,56 to 57 °C
13,CC(=O)Oc1ccc(Cn2ccnc2SC(C)=O)cc1,99 to 101 °C
14,CCc1cn(C2CC(O)C(CCC(=O)Cc3c(Cl)cccc3Cl)O2)c(=O)[nH]c1=O (stereo not given),229 to 230 °C
15,CC(=O)Nn1cc(-c2cccnc2)nc1Cl,129 to 131 °C
16,CC(C)(C)C(O)(COc1ccccc1)c1cncnc1 (stereo not given),127 to 129 °C
17,Oc1ccc(-c2cocn2)cc1,148 °C
18,Cc1ccccc1N1CCN(CCC2CN(C)C(=O)O2)CC1 (stereo not given),55 to 57 °C
19,COc1ccc(S(=O)(=O)NC(=N)CCN2CCOC2=O)cc1,115 to 118 °C
20,Fc1cc2c(cc1Cl)C(Cl)Cc1ccccc1S2 (stereo not given),94 to 96 °C
21,CC(C)(C)OC(=O)N1CCC(n2c(=O)[nH]c3ccccc32)CC1,161 to 163 °C
22,CSC(=S)N1CCN(Cc2ccccc2N(C)C)CC1,90 to 91 °C
23,CCOc1ccc(-c2nc(-c3cc(CNC)c(O)c(C(=O)O)c3)cs2)cc1OCC,271 to 273 °C
24,CCOC(=O)c1ccc(COCc2csc3nc(C(=O)NCc4cccc(CS(C)=O)c4)[nH]c(=O)c23)cc1 (stereo not given),195 to 196 °C
25,COc1ccc2[nH]c(C)c(SC)c2c1,55 to 56.5 °C
